This is an account of results in US6448293B1, “Diphenyl ether compounds useful in therapy” (Pfizer Inc., priority 2000, dated 2002).

pIC50: −log10 of the molar value. Where a name gives a salt, the structure may show the parent alone. Read-outs that look alike come from different tables or passages of the source. Where only a bound is given, the exact number is not on record here.

For data set [1], the target named is T1, human serotonin transporter (hSERT) (Homo sapiens, UniProt P31645).
T1 construct: expressed in transfected cells; host or cells: HEK-293 (human embryonic kidney cells), stably transfected
Description: Inhibition of 3H-Serotonin uptake into HEK-293 cells stably transfected with hSERT. Type of data set: cell-based. On the procedure: A number of compounds were tested for biological activity by their ability to inhibit the uptake of serotonin by human serotonin transporters as follows.
Human embryonic kidney cells (HEK-293) stably transfected with either the human serotonin transporter (hSERT), noradrenaline transporter (hNET) or dopamine transporter (hDAT) were cultured under standard cell culture techniques (cells were grown at 37° C and 5% CO2 in DMEM-culture media (supplemented with 10% dialysed foetal calf serum (FCS), 2 mM 1-glutamine and 250 μg/ml geneticin)). Cells were harvested for the assay to yield a cell suspension of 750,000 cells/ml.
(i) Determination of inhibitor potency
All test compounds were dissolved in 100% DMSO and diluted down in assay buffer to give appropriate test concentrations. Assays were carried out in 96-well filter bottom plates. Cells (7500 cells/assay well) were pre-incubated in standard assay buffer containing either test compound, standard inhibitor or compound vehicle (1 % DMSO) for 5 minutes. Reactions were started by addition of either ^3H-Serotonin, ^3H-Noradrenaline or ^3H-Dopamine substrates. All reactions were carried out at room temperature in a shaking incubator. Incubation times were 5 minutes for the hSERT and hDAT assays and 15 minutes for the hNET assay. Reactions were terminated by removal of the reaction mixture using a vacuum manifold followed by rapid washing with ice cold assay buffer. The quantity of ^3H-substrate incorporated into the cells was then quantified.
Assay plates were dried in a microwave oven, scintillation fluid added, and radioactivity measured.
(iii) Standard Assay Buffer Composition:
Note: The pH of the buffer was adjusted to 7.40 with 1 M NaOH before addition of CaCI2 and pargyline.
(iv) Summary of Assay Parameters

The mark [2] stands for this setting: HEK-293 cells transfected with hSERT, 3H-Serotonin uptake, 5 minutes incubation, room temperature, read-out: serotonin re-uptake inhibition (SRI) IC50.

The pIC50 is −log10 of the IC50, conventionally taken in molar units. Usually melting point stands for the temperature of the solid-liquid transition.

T1 sequence (P31645 whole entry): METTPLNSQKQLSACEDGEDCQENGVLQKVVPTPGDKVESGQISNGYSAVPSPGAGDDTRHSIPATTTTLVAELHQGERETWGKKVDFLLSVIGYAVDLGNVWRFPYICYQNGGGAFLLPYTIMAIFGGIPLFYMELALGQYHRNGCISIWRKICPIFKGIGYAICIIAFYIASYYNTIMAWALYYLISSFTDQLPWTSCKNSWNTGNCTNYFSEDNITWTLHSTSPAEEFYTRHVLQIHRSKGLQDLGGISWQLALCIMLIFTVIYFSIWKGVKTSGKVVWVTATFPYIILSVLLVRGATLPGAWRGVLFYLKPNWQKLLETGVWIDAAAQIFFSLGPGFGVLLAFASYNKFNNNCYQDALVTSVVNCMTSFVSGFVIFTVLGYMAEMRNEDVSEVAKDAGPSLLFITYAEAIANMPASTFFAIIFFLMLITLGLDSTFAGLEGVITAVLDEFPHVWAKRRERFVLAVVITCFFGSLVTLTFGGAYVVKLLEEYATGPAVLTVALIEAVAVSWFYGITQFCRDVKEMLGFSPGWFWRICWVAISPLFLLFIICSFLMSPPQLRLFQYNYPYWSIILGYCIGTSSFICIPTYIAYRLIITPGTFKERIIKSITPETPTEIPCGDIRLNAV

As to `CNCc1cc(-n2nccn2)ccc1Oc1ccc(SC)cc1` [Example 182, N-methyl-N-[2-[4-(methylsulfanyl)phenoxy]-5-(2 H-1,2,3-triazol-2-yl)benzyl]amine], the pIC50 in data set [1] is at least 7.30.

On to `CNCc1cc(C#N)ccc1Oc1ccc(SC)cc1` [Example 87, 3-[(Methylamino)methyl]-4-[4-(methylsulfanyl)phenoxy]benzonitrile], for which the pIC50 in data set [1] (setting [2]) is at least 7.30.

Turning to `CN(C)Cc1cc(C(N)=O)ccc1Oc1ccc(OC(F)(F)F)cc1` [Example 94], the negative-log IC50 (pIC50) in data set [1] (setting [2]) was at least 7.30.

As for `CN(C)Cc1ccc(CNS(C)(=O)=O)cc1Oc1ccc(OC(F)(F)F)cc1` [Example 120], in data set [1] (setting [2]), the pIC50 was at least 7.30.

Take `COc1ccc(Oc2ccc(SC)cc2)c(CN(C)C)c1` [Example 14]: in data set [1] (setting [2]), the negative logarithm of the IC50 (pIC50) is at least 7.30.

`CNCc1cc(-n2ccc(N)n2)ccc1Oc1ccc(SC)cc1` [Example 190, N-{5-(3-Amino-1H-pyrazol-1-yl)-2-[4-(methylsulfanyl)phenoxy]benzyl}-N-methylamine]: in data set [1] (setting [2]), the pIC50 is at least 7.30.

For `CNCc1cc(N(CCO)S(C)(=O)=O)ccc1Oc1ccc(SC)cc1` [Example 130], the pIC50 in data set [1] (setting [2]) was at least 7.30.

In data set [1], `CNCc1cc(-n2ccnn2)ccc1Oc1ccc(SC)cc1` [Example 181, N-Methyl-N-[2-[4-(methylsulfanyl)phenoxy]-5-(1 H-1,2,3-triazol-1-yl)benzyl]amine] gave a pIC50 of at least 7.30.

In the case of `CN(C)Cc1cc(C(N)=O)ccc1Oc1ccc(C(F)(F)F)cc1` [Example 95], the pIC50 in data set [1] (setting [2]) was at least 7.30.

On to `CN(C)Cc1cc(S(C)(=O)=O)ccc1Oc1ccc(OC(F)(F)F)cc1` [Example 145, N,N-Dimethyl-N-{5-(methylsulfonyl)-2-[4-(trifluoromethoxy)phenoxy]benzyl}amine], for which the pIC50 in data set [1] (setting [2]) was at least 7.30.

As for `CNCc1cc(C(=O)N[C@@H](C)CO)ccc1Oc1ccc(SC)cc1` [Example 174], the pIC50 in data set [1] (setting [2]) is at least 7.30.

For `CSc1ccc(Oc2ccc(Cl)cc2CN(C)C)cc1` [Example 135], the pIC50 in data set [1] (setting [2]) was at least 7.30.

In the case of `CSc1ccc(Oc2ccc(C(N)=O)cc2CN(C)C)cc1` [Example 91, 3-[(Dimethylamino)methyl]-4-[4-(methylsulfanyl)phenoxy]benzamide], in data set [1] (setting [2]), the pIC50 is at least 7.30.

`CNCc1cc(Br)ccc1Oc1ccc(SC)cc1` [Example 23, N-{5-Bromo-2-[4-(methylsulfanyl)phenoxy]benzyl}-N-methylamine] gave a pIC50 in data set [1] of at least 7.30.

As for `CSc1ccc(Oc2ccc(S(=O)(=O)N[C@@H](C)CO)cc2CN(C)C)cc1` [Example 53], the pIC50 in data set [1] (setting [2]) was at least 7.30.

As to `CSc1ccc(Oc2ccc(NS(=O)(=O)C(F)(F)F)cc2CN(C)C)cc1` [Example 140, N-{3-[(Dimethylamino)methyl]-4-[4-(methylsulfanyl)phenoxy]phenyl}-(trifluoro)methanesulfonamide], in data set [1], the pIC50 was at least 7.30.

For the compound `CN(C)Cc1cc(Br)ccc1Oc1ccc(C(F)(F)F)cc1` [Example 3], the pIC50 in data set [1] (setting [2]) was at least 7.30.

`CN(C)Cc1ccc(C(N)=O)cc1Oc1ccc(OC(F)(F)F)cc1` [Example 98, 4-[(Dimethylamino)methyl]-3-[4-(trifluoromethoxy)phenoxy]benzamide]: the negative logarithm of the IC50 (pIC50) in data set [1] (setting [2]) is at least 7.30.

With `CN(C)Cc1cc(CN)ccc1Oc1ccc(OC(F)(F)F)cc1` [Example 110, N-{5-(Aminomethyl)-2-[4-(trifluoromethoxy)phenoxy]benzyl}-N,N-dimethylamine], the pIC50 in data set [1] (setting [2]) was at least 7.30.

With `CNS(=O)(=O)c1ccc(Oc2ccc(C(F)(F)F)cc2)c(CN(C)C)c1` [Example 30], in data set [1] (setting [2]), the pIC50 is at least 7.30.

Take `CSc1ccc(Oc2ccc(-n3ccnn3)cc2CN(C)C)cc1` [Example 184, N,N-Dimethyl-N-[2-[4-(methylsulfanyl)phenoxy]-5-(1 H-1,2,3-triazol-1-yl)benzyl]-amine]: the negative logarithm of the IC50 (pIC50) in data set [1] (setting [2]) was at least 7.30.

For `CN(C)Cc1ccc(C(N)=O)cc1Oc1ccc(C(F)(F)F)cc1` [Example 90, 4-[(Dimethylamino)methyl]-3-[4-(trifluoromethyl)phenoxy]benzamide], in data set [1] (setting [2]), the pIC50 is at least 7.30.

With `CSc1ccc(Oc2ccc(C#N)cc2CN(C)C)cc1` [Example 85], the pIC50 in data set [1] (setting [2]) is at least 7.30.

Regarding `CNCc1cc(NS(C)(=O)=O)ccc1Oc1ccc(SC)cc1` [Example 128, N-{3-[(Methylamino)methyl]-4-[4-(methylsulfanyl)phenoxy]phenyl}methanesulfonamide], the negative logarithm of the IC50 (pIC50) in data set [1] (setting [2]) was at least 7.30.

`CSc1ccc(Oc2ccc(-n3nccn3)cc2CN(C)C)cc1` [Example 183, N,N-Dimethyl-N-[2-[4-(methylsulfanyl)phenoxy]-5-(2 H-1,2,3-triazol-2-yl)benzyl]amine]: the pIC50 in data set [1] was at least 7.30.

In the case of `CN(C)Cc1cc(NS(C)(=O)=O)ccc1Oc1ccc(OC(F)(F)F)cc1` [Example 116], the pIC50 in data set [1] (setting [2]) is at least 7.30.

On to `CSc1ccc(Oc2ccc(OC(F)(F)F)cc2)c(CN(C)C)c1` [Example 141, N,N-Dimethyl-N-{5-(methylsulfanyl)-2-[4-(trifluoromethoxy)phenoxy]benzyl}amine], for which the negative logarithm of the IC50 (pIC50) in data set [1] (setting [2]) is at least 7.30.

For `CSc1ccc(Oc2ccc(S(N)(=O)=O)cc2CN(C)C)cc1` [Example 28, 3-[(Dimethylamino)methyl]-4-[4-(methylsulfanyl)phenoxy]benzenesulfonamide], in data set [1] (setting [2]), the pIC50 was at least 7.30.

`CSc1ccc(Oc2ccc(-n3cnnc3)cc2CN(C)C)cc1` [Example 189, N-[2-[4-(Methylsulfanyl)phenoxy]-5-(4H-1,2,4-triazol-4-yl)benzyl]-N,N-dimethylamine] showed a pIC50 in data set [1] of at least 7.30.

`CN(C)Cc1cc([S+](C)[O-])ccc1Oc1ccc(C(F)(F)F)cc1` (stereo not shown) [Example 147]: the pIC50 in data set [1] (setting [2]) was at least 7.30.

`CNCc1cc(O)ccc1Oc1ccc(SC)cc1` [Example 74, 3-[(Methylamino)methyl]-4-[4-(methylsulfanyl)phenoxy]phenol]: in data set [1] (setting [2]), the pIC50 was at least 7.30.

On to `CSc1ccc(Oc2ccc(-n3cncn3)cc2CN(C)C)cc1` [Example 188, N,N-dimethyl-N-[2-[4-(methylsulfanyl)phenoxy]-5-(1 H-1,2,4-triazol-1-yl)benzyl]-amine], for which the pIC50 in data set [1] (setting [2]) was at least 7.30.

The compound `CNCc1cc(-n2ccnc2)ccc1Oc1ccc(SC)cc1` [Example 185, N-[2-[4-(Methylsulfanyl)phenoxy]-5-(1 H-imidazol-1-yl)benzyl]-N-methylamine] had a pIC50 in data set [1] of at least 7.30.

Consider `CN(C)Cc1cc(NS(C)(=O)=O)ccc1Oc1ccc(C(F)(F)F)cc1` [Example 114, N-(3-[(Dimethylamino)methyl]-4-[4-(trifluoromethyl)phenoxy]phenyl} methanesulfonamide], for which the pIC50 in data set [1] (setting [2]) was at least 7.30.

For the compound `CSc1ccc(Oc2ccc(S(N)(=O)=O)cc2CN(C)C)cc1` (as salt: hydrochloride) [Example 28, 3-[(Dimethylamino)methyl]-4-[4-(methylsulfanyl)phenoxy]benzenesulfonamide], the melting point fell in the range of 193 to 194 °C.

As for `CSc1ccc(Oc2ccc(Br)cc2CN(C)C)cc1` [Example 9], in data set [1] (setting [2]), the pIC50 was at least 7.30.

Take `CNCc1cc(C(N)=O)ccc1Oc1ccc(SC)cc1` [Example 97]: in data set [1] (setting [2]), the negative-log IC50 (pIC50) was at least 7.30.

Regarding `CC[S+]([O-])c1ccc(CN(C)C)c(Oc2ccc(C(F)(F)F)cc2)c1` (stereo not shown) [Example 148], in data set [1] (setting [2]), the pIC50 is at least 7.30.

Consider `CN(C)Cc1cc(CNS(C)(=O)=O)ccc1Oc1ccc(OC(F)(F)F)cc1` [Example 117], for which the negative-log IC50 (pIC50) in data set [1] (setting [2]) is at least 7.30.

On to `CNCc1cc(C(=O)NC)ccc1Oc1ccc(SC)c(OC)c1` [Example 176], for which, in data set [1] (setting [2]), the negative logarithm of the IC50 (pIC50) is at least 7.30.

Regarding `CN(C)Cc1cc(S(N)(=O)=O)ccc1Oc1ccc(OC(F)(F)F)cc1` [Example 36], in data set [1] (setting [2]), the pIC50 is at least 7.30.

As to `CNCc1cc(CO)ccc1Oc1ccc(SC)cc1` [Example 156, {3-[(Methylamino)methyl]-4-[4-(methylsulfanyl)phenoxy]phenyl}methanol], the pIC50 in data set [1] (setting [2]) is at least 7.30.

With `CNCc1cc(C(=O)NCCOC)ccc1Oc1ccc(SC)cc1` [Example 170], in data set [1] (setting [2]), the pIC50 was at least 7.30.

In the case of `CN(C)Cc1cc(CO)ccc1Oc1ccc(OC(F)(F)F)cc1` [Example 157], the pIC50 in data set [1] (setting [2]) was at least 7.30.

Turning to `CN(C)Cc1cc(C#N)ccc1Oc1ccc(OC(F)(F)F)cc1` [Example 84], the pIC50 in data set [1] (setting [2]) was at least 7.30.

With `CNC(=O)c1ccc(Oc2ccc(OC(F)(F)F)cc2)c(CN(C)C)c1` [Example 101], the pIC50 in data set [1] (setting [2]) was at least 7.30.

Consider `CNCc1cc(C(N)=O)ccc1Oc1ccc(SC)c(OC)c1` [Example 169, 4-[3-Methoxy-4-(methylsulfanyl)phenoxy]-3-[(methylamino)methyl]benzamide], for which the pIC50 in data set [1] (setting [2]) was at least 7.30.

Regarding `CNCc1cc(NS(C)(=O)=O)ccc1Oc1ccc(C(F)(F)F)cc1` [Example 121, N-{3-[(Methylamino)methyl]-4-[4-(trifluoromethyl)phenoxy]phenyl}-methanesulfonamide], the pIC50 in data set [1] (setting [2]) is at least 7.30.

In turn, `CNCc1cc(-n2cncn2)ccc1Oc1ccc(SC)cc1` [Example 187, N-Methyl-N-[2-[4-(methylsulfanyl)phenoxy]-5-(1 H-1,2,4-triazol-1-yl)benzyl]amine] had a pIC50 in data set [1] of at least 7.30.
